{"source": "patent US8632839B2", "about": "“Methods of forming self-supporting films for delivery of therapeutic agents” (priority 2010, dated 2014)", "assay": "saturation and payload limits for dip coating bupivacaine HCl on polyester mesh (FIG. 8)", "type": "physicochemical", "conditions": "Parietex monofilament polyester mesh without polymer film", "source_text": "Further, it is believed that spraying films on a medical device (e.g., mesh) compared to other conventional methods, such as dip coating, provides increased loading of the therapeutic agent.\nMore particularly FIG. 8 illustrates the loading limits for a polyester mesh (Parietex™ monofilament mesh) without a polymer film.", "note": "Structures can show the parent of a compound that is named as a salt.", "data": [{"smiles": "CCCCN1CCCCC1C(=O)Nc1c(C)cccc1C", "note": "(centres unmarked) [bupivacaine HCl, bupivacaine hydrochloride]", "values": [{"measurement": "saturation and payload limit for dip coating solution", "setting": "solution in MeOH", "value": 12, "unit": "% w/v"}, {"measurement": "saturation and payload limit for dip coating solution", "setting": "solution in water", "value": 5, "unit": "% w/v"}]}]}
